Source: ChEMBL document CHEMBL1201862, “PubChem BioAssay data set” (2004)
Calls of active or inactive are those of the source.

Tests used:
[1] = molecular target: T1, Heat shock factor protein 1 (Mus musculus, UniProt P38532); assay: decrease of HSF1-responsive luciferase luminescence – cell-based, NIH3T3, dose retest, confirmation (AID 2382); format: functional;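 further: NIH3T3 fibroblasts with HSF1-driven luciferase reporter stressed by proteasome inhibitor MG132; luminescence from HSF1-driven luciferase expression after 8 hours of MG132 stress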
T1 sequence (P38532 whole entry): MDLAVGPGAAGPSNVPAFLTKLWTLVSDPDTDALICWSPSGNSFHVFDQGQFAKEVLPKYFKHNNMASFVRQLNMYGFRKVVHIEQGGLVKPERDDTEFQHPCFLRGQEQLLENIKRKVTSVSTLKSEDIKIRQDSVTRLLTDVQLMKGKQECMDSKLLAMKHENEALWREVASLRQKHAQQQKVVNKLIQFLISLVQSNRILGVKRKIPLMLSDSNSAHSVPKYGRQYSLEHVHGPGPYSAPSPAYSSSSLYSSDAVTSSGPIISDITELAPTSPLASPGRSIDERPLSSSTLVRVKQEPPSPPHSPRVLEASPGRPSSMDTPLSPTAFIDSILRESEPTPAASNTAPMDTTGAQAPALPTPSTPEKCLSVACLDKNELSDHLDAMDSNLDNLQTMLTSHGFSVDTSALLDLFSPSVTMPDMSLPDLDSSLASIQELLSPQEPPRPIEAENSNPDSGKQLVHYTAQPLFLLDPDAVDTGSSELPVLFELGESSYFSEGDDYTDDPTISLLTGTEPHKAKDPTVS

[2] = molecular target: T2, Streptokinase A (Streptococcus pyogenes serotype M1, UniProt P10520); assay: viability-normalized secreted streptokinase activity reduction – plasminogen activation absorbance, OD405, dose response (AID 1914); format: functional, Streptococcus pyogenes M1 GAS;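 further: secreted streptokinase activity via plasminogen activation per viability signal from cell pellet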
T2 sequence (P10520 whole entry): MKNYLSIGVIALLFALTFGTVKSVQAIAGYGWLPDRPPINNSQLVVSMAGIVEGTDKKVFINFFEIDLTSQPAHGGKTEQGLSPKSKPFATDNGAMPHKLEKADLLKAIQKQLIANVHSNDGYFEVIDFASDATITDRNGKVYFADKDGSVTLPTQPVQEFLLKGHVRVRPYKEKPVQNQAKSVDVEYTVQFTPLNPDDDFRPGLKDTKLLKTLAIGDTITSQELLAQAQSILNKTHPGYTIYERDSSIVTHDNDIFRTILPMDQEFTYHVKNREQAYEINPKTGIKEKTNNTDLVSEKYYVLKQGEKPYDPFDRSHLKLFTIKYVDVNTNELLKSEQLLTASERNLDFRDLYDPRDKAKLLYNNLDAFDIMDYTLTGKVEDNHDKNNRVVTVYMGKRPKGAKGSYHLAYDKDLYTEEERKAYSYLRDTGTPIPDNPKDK

[3] = molecular target: Induced myeloid leukemia cell differentiation protein Mcl-1 (Homo sapiens, UniProt Q07820); format: functional
Chain of Induced myeloid leukemia cell differentiation protein Mcl-1 (Q07820 whole entry): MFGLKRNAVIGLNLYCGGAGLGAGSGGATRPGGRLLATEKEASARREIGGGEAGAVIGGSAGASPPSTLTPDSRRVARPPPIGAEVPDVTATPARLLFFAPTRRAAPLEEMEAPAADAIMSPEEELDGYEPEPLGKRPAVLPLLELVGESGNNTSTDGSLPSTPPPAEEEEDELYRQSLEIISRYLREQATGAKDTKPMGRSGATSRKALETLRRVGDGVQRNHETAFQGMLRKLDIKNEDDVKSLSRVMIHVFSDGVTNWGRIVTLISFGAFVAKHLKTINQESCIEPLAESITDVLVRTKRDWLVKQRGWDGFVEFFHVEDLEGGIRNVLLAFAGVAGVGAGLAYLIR

[4] = molecular target: C-C chemokine receptor type 6 (Homo sapiens, UniProt P51684); assay: antagonism of CCR6 beta-arrestin recruitment – cell-based, luminescent beta-arrestin readout, dose response (AID 504728); format: functional
Chain of C-C chemokine receptor type 6 (P51684 whole entry): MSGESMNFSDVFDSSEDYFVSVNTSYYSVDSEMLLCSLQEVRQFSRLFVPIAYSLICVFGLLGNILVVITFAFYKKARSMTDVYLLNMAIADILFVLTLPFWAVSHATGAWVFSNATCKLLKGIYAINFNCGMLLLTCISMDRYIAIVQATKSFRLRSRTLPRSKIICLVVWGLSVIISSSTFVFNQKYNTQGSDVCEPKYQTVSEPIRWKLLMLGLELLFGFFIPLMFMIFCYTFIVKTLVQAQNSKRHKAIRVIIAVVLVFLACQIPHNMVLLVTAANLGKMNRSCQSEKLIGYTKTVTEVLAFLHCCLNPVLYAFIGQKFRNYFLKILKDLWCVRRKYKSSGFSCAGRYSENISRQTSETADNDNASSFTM

[5] = molecular target: Beta-galactosidase (Escherichia coli, UniProt Q8VNN2); assay: detection-enzyme interference by beta-gal modulators – biochemical, E. coli enzyme, set 3, artefact control for CCR6 antagonist project, dose response (AID 504712); format: functional
Chain of Beta-galactosidase (Q8VNN2 whole entry): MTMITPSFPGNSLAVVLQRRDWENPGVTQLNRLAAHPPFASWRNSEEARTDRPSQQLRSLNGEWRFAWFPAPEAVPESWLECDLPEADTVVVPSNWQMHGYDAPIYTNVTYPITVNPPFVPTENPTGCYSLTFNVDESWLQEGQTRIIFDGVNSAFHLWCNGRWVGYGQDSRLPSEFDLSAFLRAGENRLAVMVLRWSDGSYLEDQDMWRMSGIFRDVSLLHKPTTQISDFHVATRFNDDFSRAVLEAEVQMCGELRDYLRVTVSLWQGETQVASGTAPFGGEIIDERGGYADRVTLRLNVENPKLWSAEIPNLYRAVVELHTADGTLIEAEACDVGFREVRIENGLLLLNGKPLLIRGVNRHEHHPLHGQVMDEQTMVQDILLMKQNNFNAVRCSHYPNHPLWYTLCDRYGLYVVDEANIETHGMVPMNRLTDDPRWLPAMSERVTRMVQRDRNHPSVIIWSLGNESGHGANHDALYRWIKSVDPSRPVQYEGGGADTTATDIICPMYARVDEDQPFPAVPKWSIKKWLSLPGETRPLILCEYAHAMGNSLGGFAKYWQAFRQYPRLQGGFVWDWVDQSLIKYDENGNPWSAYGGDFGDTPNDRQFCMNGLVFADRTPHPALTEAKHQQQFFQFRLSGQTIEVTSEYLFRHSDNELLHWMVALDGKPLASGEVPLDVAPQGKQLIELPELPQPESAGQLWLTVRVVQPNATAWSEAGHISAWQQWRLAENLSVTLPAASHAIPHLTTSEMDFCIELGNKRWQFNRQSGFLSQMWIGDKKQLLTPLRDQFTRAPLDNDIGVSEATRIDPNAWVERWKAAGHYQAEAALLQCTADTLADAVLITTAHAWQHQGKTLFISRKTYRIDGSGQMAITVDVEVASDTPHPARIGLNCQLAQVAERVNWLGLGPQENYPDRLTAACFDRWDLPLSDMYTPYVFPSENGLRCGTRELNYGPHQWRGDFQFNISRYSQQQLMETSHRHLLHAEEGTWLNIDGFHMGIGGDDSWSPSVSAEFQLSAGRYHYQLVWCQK

[6] = molecular target: T3, Replicative DNA helicase DnaB (Mycobacterium tuberculosis, UniProt P9WMR3); assay: DnaB intein splicing inhibitors, dose response, biochemical, cell-free fluorescence (AID 449749); format: functional
T3 sequence (P9WMR3 whole entry): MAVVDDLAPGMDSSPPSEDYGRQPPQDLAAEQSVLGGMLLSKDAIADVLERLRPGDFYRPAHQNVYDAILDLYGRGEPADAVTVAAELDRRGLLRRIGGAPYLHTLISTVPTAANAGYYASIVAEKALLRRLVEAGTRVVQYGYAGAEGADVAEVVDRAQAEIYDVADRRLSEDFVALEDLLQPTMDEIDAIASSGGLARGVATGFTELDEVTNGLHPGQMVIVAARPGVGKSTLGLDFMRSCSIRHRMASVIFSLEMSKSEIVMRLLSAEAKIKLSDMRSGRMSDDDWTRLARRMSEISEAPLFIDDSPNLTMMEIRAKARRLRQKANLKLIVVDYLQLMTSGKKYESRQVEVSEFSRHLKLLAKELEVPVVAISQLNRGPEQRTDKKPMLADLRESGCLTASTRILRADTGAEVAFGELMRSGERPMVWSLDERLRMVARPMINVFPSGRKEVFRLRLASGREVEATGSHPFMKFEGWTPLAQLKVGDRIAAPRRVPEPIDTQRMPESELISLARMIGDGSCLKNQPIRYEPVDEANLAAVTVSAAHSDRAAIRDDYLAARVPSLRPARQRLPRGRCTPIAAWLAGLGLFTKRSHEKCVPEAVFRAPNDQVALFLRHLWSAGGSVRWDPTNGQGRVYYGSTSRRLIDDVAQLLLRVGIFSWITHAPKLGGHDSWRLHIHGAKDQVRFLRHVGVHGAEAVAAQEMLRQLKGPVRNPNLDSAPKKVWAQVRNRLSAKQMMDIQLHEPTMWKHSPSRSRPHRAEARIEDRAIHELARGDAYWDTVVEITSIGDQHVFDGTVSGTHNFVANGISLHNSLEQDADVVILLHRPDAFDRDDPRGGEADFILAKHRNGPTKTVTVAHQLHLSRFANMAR

[7] = molecular target: T4, Protein RecA (Mycobacterium tuberculosis, UniProt P9WHJ3); assay: Fluorescence Cell-Free Homogeneous Dose Retest to Identify Inhibitors of RecA-Intein Splicing Activity. [Related pubchem assays (depositor defined):AID2097, AID2223, AID489010, AID492950]; format: functional
T4 sequence (P9WHJ3 whole entry): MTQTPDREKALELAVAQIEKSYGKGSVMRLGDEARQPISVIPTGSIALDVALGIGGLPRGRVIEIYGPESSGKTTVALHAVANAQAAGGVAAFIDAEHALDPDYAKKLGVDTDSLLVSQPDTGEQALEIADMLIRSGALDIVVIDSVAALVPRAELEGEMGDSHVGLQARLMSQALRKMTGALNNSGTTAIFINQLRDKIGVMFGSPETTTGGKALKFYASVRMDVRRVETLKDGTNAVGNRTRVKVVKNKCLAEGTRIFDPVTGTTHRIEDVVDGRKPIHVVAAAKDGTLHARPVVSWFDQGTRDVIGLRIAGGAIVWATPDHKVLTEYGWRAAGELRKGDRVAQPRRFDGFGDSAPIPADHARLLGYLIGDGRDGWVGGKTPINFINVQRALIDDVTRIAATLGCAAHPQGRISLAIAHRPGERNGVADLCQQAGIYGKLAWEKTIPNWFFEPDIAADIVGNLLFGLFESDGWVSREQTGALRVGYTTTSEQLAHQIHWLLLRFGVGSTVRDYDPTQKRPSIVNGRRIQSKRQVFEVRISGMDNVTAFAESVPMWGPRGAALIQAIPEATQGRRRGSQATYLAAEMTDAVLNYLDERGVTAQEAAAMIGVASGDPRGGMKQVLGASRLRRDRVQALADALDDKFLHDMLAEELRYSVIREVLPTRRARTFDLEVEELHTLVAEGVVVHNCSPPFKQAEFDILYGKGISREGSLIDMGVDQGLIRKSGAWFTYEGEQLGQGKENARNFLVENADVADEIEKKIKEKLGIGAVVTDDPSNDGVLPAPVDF

[8] = molecular target: Multidrug resistance protein CDR2 (Candida albicans (strain SC5314 / ATCC MYA-2876) (Yeast), UniProt P78595); assay: inhibition of Nile Red efflux via Candida CDR2 – S. cerevisiae AD1-8u, singleplex, Cherry Pick1 hits, dose response (AID 588604); format: functional
Chain of Multidrug resistance protein CDR2 (P78595 whole entry): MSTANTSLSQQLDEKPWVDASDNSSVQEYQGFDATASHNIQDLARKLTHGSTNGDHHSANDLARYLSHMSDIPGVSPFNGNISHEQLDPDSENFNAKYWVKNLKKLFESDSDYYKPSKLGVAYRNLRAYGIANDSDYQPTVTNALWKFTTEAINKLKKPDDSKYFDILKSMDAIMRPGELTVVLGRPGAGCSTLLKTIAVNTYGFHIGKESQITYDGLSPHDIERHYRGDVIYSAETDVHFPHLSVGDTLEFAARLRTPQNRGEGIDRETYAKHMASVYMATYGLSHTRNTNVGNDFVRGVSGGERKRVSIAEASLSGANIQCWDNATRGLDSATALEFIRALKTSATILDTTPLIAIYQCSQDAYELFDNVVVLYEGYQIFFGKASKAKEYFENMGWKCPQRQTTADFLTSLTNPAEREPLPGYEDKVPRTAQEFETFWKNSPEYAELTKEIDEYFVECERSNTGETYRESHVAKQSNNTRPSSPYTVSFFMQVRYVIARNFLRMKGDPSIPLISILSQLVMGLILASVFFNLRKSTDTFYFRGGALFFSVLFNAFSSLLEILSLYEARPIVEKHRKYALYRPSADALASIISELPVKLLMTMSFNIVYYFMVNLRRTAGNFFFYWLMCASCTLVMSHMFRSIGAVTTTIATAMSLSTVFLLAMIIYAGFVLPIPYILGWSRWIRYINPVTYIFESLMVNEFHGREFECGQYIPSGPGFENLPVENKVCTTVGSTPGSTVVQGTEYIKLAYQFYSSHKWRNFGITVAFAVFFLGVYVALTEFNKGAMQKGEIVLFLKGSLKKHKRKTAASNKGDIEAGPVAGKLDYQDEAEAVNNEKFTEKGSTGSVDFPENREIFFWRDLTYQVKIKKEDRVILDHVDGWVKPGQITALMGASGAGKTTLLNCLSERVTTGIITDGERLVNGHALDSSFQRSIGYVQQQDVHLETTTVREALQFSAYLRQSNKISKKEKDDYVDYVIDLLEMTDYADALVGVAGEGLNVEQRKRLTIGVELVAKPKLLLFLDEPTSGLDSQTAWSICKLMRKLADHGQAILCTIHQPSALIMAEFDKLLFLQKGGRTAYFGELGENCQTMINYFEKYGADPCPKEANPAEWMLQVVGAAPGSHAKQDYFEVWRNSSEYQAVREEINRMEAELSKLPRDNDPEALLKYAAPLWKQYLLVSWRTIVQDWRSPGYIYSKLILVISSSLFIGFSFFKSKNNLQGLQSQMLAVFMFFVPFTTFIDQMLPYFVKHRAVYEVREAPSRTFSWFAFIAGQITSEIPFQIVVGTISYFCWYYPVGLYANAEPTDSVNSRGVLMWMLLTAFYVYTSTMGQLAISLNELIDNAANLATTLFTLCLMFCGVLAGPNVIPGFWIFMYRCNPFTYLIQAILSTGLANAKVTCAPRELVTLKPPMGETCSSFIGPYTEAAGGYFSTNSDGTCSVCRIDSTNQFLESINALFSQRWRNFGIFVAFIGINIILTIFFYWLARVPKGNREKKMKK

[9] = molecular target: Genome polyprotein (dengue virus type 2, UniProt P29990); assay: flavivirus cap methylation enzyme inhibition – biochemical, confirmation dose response, primary screen (AID 588689); format: functional
Chain of Genome polyprotein (P29990 2492-3391 limits assumed): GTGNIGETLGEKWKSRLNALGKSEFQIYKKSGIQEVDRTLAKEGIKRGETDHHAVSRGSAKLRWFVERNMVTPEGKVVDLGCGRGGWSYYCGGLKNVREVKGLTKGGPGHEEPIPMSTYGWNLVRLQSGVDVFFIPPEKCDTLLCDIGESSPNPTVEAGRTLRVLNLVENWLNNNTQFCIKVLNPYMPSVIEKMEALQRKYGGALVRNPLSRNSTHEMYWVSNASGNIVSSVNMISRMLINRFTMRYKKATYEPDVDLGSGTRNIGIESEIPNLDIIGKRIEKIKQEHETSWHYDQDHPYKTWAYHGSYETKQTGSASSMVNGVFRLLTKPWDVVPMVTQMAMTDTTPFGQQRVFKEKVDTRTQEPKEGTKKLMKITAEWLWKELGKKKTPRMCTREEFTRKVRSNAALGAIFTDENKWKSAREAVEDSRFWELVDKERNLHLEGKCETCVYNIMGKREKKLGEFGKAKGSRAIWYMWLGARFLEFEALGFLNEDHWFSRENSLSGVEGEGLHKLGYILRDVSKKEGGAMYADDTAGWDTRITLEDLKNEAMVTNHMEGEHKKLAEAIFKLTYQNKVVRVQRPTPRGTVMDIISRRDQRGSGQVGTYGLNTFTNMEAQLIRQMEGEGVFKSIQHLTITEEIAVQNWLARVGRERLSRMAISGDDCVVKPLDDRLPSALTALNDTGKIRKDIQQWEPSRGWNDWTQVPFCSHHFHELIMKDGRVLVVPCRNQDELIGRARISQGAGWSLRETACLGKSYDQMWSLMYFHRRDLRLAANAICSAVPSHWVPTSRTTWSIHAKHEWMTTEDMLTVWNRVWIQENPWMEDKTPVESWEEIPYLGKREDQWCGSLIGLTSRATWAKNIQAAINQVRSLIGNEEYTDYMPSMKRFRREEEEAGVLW

[10] = molecular target: T5, Mitochondrial peptide methionine sulfoxide reductase (Bos taurus, UniProt P54149); assay: Absorbance-based biochemical high throughput dose response assay for activators of Methionine sulfoxide reductase A (MsrA).; format: functional
T5 sequence (P54149 whole entry): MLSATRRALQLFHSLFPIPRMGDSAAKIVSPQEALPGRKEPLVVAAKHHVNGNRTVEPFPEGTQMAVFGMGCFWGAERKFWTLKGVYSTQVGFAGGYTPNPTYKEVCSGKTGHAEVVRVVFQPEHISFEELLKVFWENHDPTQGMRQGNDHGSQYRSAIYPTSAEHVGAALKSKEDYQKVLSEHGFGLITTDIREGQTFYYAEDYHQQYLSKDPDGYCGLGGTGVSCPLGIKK

SMILES: O=C1C(Cl)=C(Nc2ccc3cn[nH]c3c2)C(=O)c2ccccc21
- EC50 [1]: 5.42 µM (active)
- EC50 [2]: 6.22 µM (active)
- IC50 [3]: 6.25 µM (active)
- IC50 [4]: > 66.6 µM (inactive)
- IC50 [5]: > 66.6 µM (inactive)
- AC50 [6]: 1.65 µM (active)
- EC50 [7]: 0.955 µM (active)
- EC50 [8]: 40.6 µM (active)
- IC50 [9]: 18.7 µM (active)
- EC50 [10]: > 104 µM (inactive)
